Results as given in patent US20230241076A1, “HISTONE-ACETYLATION-MODULATING AGENTS FOR THE TREATMENT AND PREVENTION OF ORGAN INJURY” (The Regents of the University of Michigan, priority 2020, published 2023).

Legend:
pig donor heart = assay: pig donor heart, 10 h of cold storage followed by ex vivo perfusion; details: 50 μM in HTK; 10 h of cold storage on ice, 30 minutes of reperfusion ex vivo; N=4
Protocol: FIG. 5. […] Pig hearts were perfused with 1 L HTK solution after cross clamp. Addition 2 L of HTK with or without canrenone were perfused and stored for 10 hr on ice. Pig hearts were perfused in ex vivo system with blood and Krebs buffer (1:4, hemoglobin concentration: […]). max dp/dt (contraction) and min dp/dt (relaxation) were calculated by average the max/min dp/dt for 10 minute period after 30 minutes of reperfusion using Millar Catheter. *P<0.05, **P<0.01. N=4.

murine donor heart [1] = assay: murine donor heart, 16 h of cold storage followed by 24 h of heterotopic transplantation; format: in vivo; details: 50 μM in storage, n=8
Protocol: FIG. 4. […] Donor heart was isolated and store with or without canrenone for 16 hr, then the donor hearts were heterotopic transplanted to receipt cervical region. max dp/dt (contraction) and min dp/dt (relaxation) were calculated by average the max/min dp/dt for 1 minute period after 24 hr of transplantation using Millar Catheter. *P<0.05, n=8.

murine donor heart [2] = assay: murine donor heart, 16 h of cold storage followed by ex vivo perfusion; details: 50 μM, 60 minutes of reperfusion, N=8
Description: FIG. 2. […] N=8 at each time point.

[3] = test system: ischemia reperfusion (IR) rats; details: cited from earlier work; for heart function: ischemia reperfusion (IR) rats
[4] = test system: mineralocorticoid receptor (MR); details: cited from earlier work
heart = details: rats; cited from earlier work
donor heart = donor heart function after 16 hr of cold storage followed by reperfusion (VPA)
Description: (§1) FIG. 7, panels A-C. […] Panels B and C.

[5] = test system: heart, kidneys, lung and liver; details: cited from earlier work
[6] = large epidemiologic studies; cited from earlier work
Irg1 = Irg1 expression in cold-stored donor heart; details: cold storage of donor heart, VPA treatment
Description: as §1

heart failure = details: cited from earlier work
cardiomyocytes = details: IR conditions; cited from earlier work

SMILES: C[C@]12CCC(=O)C=C1C=C[C@@H]1[C@@H]2CC[C@@]2(C)[C@H]1CC[C@@]21CCC(=O)O1 [Canrenone, canrenone]
- donor heart function, max dp/dt (contraction) and min dp/dt (relaxation) (pig donor heart): improve pig donor heart function
- donor heart function, max dp/dt (contraction) and min dp/dt (relaxation) (murine donor heart [1]): improve murine donor heart function
- donor heart function, max dp/dt (contraction) and min dp/dt (relaxation) (murine donor heart [2]): improves murine donor heart function

SMILES: CC(=O)O [acetate]
- heart function [3]: improve heart function

SMILES: CCCC(CCC)C(=O)O [VPA, valproic acid]
- acetylation of the mineralocorticoid receptor (MR) [4]: affect the acetylation of the mineralocorticoid receptor
- protection of the heart against AMI injury (heart): protects the heart against AMI injury
- effect of VPA on donor heart function with Irg1 deletion (donor heart; Irg1 deletion, 16 hr of cold storage followed by reperfusion): Irg1 deletion reduce the protective effect
- donor heart ischemic tolerance (donor heart; cold storage of donor heart): improve donor heart ischemic tolerance
- fibrosis [5]: reduce fibrosis
- incidence of stroke and AMI [6]: reduce the incidence of stroke and AMI
- Irg1 expression (Irg1): further stimulates Irg1 upregulation

SMILES: Cc1sc2c(c1C)C(c1ccc(Cl)cc1)=N[C@@H](CC(=O)OC(C)(C)C)c1nnc(C)n1-2 [JQ-1]
- heart failure (heart failure): effectively halt heart failure
- protection of cardiomyocytes (cardiomyocytes): may protect cardiomyocytes

SMILES: CCCCCCCC(=O)O [octanoate]
- heart functional recovery ([3]; 160 mg/kg i.p. injected once at the time of reperfusion): significant heart functional recovery
- heart function [3]: improve heart function
